Reference: patent US5840684A, “Glycopeptide antibiotic derivatives” (Eli Lilly and Company, priority 1995, dated 1998)
≈ marks a conversion by molar mass, not a printed value.

Key:
[1] = test system: vancomycin-resistant enterococci; experiment: broth micro-dilution, mean geometric MIC; type: cell-based, Enterococcus faecium and Enterococcus faecalis; details: enterococci, 24-hour incubation
[2] = test system: Staphylococcus epidermidis 270; experiment: broth micro-dilution MIC; type: cell-based
Method: (§1) The formula I compounds have in vitro and in vivo activity against Gram-positive pathogenic bacteria. The MIC's were determined using a standard broth micro-dilution assay.

[3] = test system: Staphylococcus haemolyticus 415; experiment: broth micro-dilution MIC; type: cell-based
Method: as §1

[4] = test system: Entercoccus faecium 2041; experiment: broth micro-dilution MIC; type: cell-based; details: Entercoccus faecium 2041
Method: as §1

[5] = test system: Staphylococcus haemolyticus 105; experiment: broth micro-dilution MIC; type: cell-based
Method: as §1

[6] = test system: Enterococcus gallinarum 245; experiment: broth micro-dilution MIC; type: cell-based; details: Enterococcus gallinarum 245
Method: as §1

[7] = test system: Entercoccus faecium 180; experiment: broth micro-dilution MIC; type: cell-based; details: Entercoccus faecium 180
Method: as §1

[8] = test system: Staphylococcus aureus SA1199B; type: cell-based
Method: (§2) The MIC's were determined using a standard broth micro-dilution assay.

[9] = test system: Staphylococcus aureus S13E; type: cell-based
Method: as §2

[10] = test system: vancomycin-susceptible enterococci; experiment: broth micro-dilution, mean geometric MIC; type: cell-based, Enterococcus faecium and Enterococcus faecalis; details: enterococci, 24-hour incubation
[11] = test system: Entercoccus faecium 276; experiment: broth micro-dilution MIC; type: cell-based
Method: as §2

[12] = test system: Staphylococcus aureus SA1199; experiment: broth micro-dilution MIC; type: cell-based
Method: as §2

[13] = test system: Staphylococcus aureus 447; experiment: broth micro-dilution MIC; type: cell-based
Method: as §2

[14] = test system: Staphylococcus aureus X778; experiment: broth micro-dilution MIC; type: cell-based
Method: as §2

[15] = test system: Staphylococcus aureus 491; experiment: broth micro-dilution MIC; type: cell-based
Method: as §2

[16] = test system: Staphylococcus aureus X400; experiment: broth micro-dilution MIC; type: cell-based
Method: as §2

[17] = test system: Staphylococcus aureus 446; experiment: broth micro-dilution MIC; type: cell-based
Method: as §2

[18] = test system: Streptococcus pneumoniae P1; experiment: broth micro-dilution MIC; type: cell-based
Method: as §1

[19] = test system: Entercoccus faecium 180-1; experiment: broth micro-dilution MIC; type: cell-based
Method: as §2

[20] = test system: Streptococcus pyogenes C203; experiment: broth micro-dilution MIC; type: cell-based
Method: as §2

[21] = test system: Staphylococcus aureus SA1199A; experiment: broth micro-dilution MIC; type: cell-based
Method: as §2

[22] = test system: Staphylococcus aureus 489; experiment: broth micro-dilution MIC; type: cell-based
Method: as §2

CNC(CC(C)C)C(=O)NC1C(=O)NC(CC(N)=O)C(=O)NC2C(=O)NC3C(=O)NC(C(=O)NC(C(=O)O)c4cc(O)cc(O)c4-c4cc3ccc4O)C(OC3CC(C)(N)C(O)C(C)O3)c3ccc(c(Cl)c3)Oc3cc2cc(c3OC2OC(CO)C(O)C(O)C2OC2CC(C)(NCc3ccc(-c4ccc(OC)cc4)s3)C(O)C(C)O2)Oc2ccc(cc2Cl)C1O (stereo not shown) [Compound 71]
mean geometric MIC, Vancomycin Resistant Strains [1]: 11 mg/L | MIC [2]: 2 mg/L (≈ 1.11 µM) | MIC [3]: 8 mg/L (≈ 4.46 µM) | MIC [4]: 1 mg/L (≈ 0.557 µM) | MIC [5]: 16 mg/L (≈ 8.91 µM) | MIC [6]: 8 mg/L (≈ 4.46 µM) | MIC [7]: 4 mg/L (≈ 2.23 µM) | MIC [8]: 4 mg/L (≈ 2.23 µM) | MIC [9]: 1 mg/L (≈ 0.557 µM) | mean geometric MIC, Vancomycin Sensitive Strains [10]: 0.57 mg/L | MIC [11]: 2 mg/L (≈ 1.11 µM) | MIC [12]: 1 mg/L (≈ 0.557 µM) | MIC [13]: 4 mg/L (≈ 2.23 µM) | MIC [14]: 2 mg/L (≈ 1.11 µM) | MIC [15]: 2 mg/L (≈ 1.11 µM) | MIC [16]: 1 mg/L (≈ 0.557 µM) | MIC [17]: 4 mg/L (≈ 2.23 µM)

CCN(CC)CCOc1ccc(CNC2(C)CC(OC3C(Oc4c5cc6cc4Oc4ccc(cc4Cl)C(OC4CC(C)(N)C(O)C(C)O4)C4NC(=O)C(NC(=O)C6NC(=O)C(CC(N)=O)NC(=O)C(NC(=O)C(CC(C)C)NC)C(O)c6ccc(c(Cl)c6)O5)c5ccc(O)c(c5)-c5c(O)cc(O)cc5C(C(=O)O)NC4=O)OC(CO)C(O)C3O)OC(C)C2O)cc1 (stereo not shown) [Compound 83]
mean geometric MIC, Vancomycin Resistant Strains [1]: 54 mg/L | MIC [2]: 2 mg/L (≈ 1.11 µM) | MIC [3]: 4 mg/L (≈ 2.22 µM) | MIC [4]: 0.5 mg/L (≈ 0.278 µM) | MIC [5]: 2 mg/L (≈ 1.11 µM) | MIC [18]: ≤ 0.06 mg/L | MIC [6]: 0.5 mg/L (≈ 0.278 µM) | MIC [7]: 8 mg/L (≈ 4.45 µM) | MIC [8]: 1 mg/L (≈ 0.556 µM) | MIC [9]: 0.125 mg/L (≈ 0.0695 µM) | mean geometric MIC, Vancomycin Sensitive Strains [10]: 1.7 mg/L | MIC [12]: 2 mg/L (≈ 1.11 µM) | MIC [13]: 2 mg/L (≈ 1.11 µM) | MIC [14]: 0.5 mg/L (≈ 0.278 µM) | MIC [15]: 0.5 mg/L (≈ 0.278 µM) | MIC [16]: 2 mg/L (≈ 1.11 µM) | MIC [19]: 0.125 mg/L (≈ 0.0695 µM) | MIC [17]: 1 mg/L (≈ 0.556 µM) | MIC [20]: ≤ 0.06 mg/L

CNC(CC(C)C)C(=O)NC1C(=O)NC(CC(N)=O)C(=O)NC2C(=O)NC3C(=O)NC(C(=O)NC(C(=O)O)c4cc(O)cc(O)c4-c4cc3ccc4O)C(OC3CC(C)(N)C(O)C(C)O3)c3ccc(c(Cl)c3)Oc3cc2cc(c3OC2OC(CO)C(O)C(O)C2OC2CC(C)(NCC3=CCC4CC3C4(C)C)C(O)C(C)O2)Oc2ccc(cc2Cl)C1O (stereo not shown) [Compound 170]
mean geometric MIC, Vancomycin Resistant Strains [1]: 8.0 mg/L | MIC [2]: 1 mg/L (≈ 0.579 µM) | MIC [3]: 4 mg/L (≈ 2.32 µM) | MIC [4]: ≤ 0.06 mg/L | MIC [5]: 4 mg/L (≈ 2.32 µM) | MIC [18]: ≤ 0.06 mg/L | MIC [6]: 4 mg/L (≈ 2.32 µM) | MIC [7]: 2 mg/L (≈ 1.16 µM) | mean geometric MIC, Vancomycin Sensitive Strains [10]: 0.22 mg/L | MIC [11]: 0.5 mg/L (≈ 0.29 µM) | MIC [12]: 1 mg/L (≈ 0.579 µM) | MIC [13]: 0.5 mg/L (≈ 0.29 µM) | MIC [14]: 1 mg/L (≈ 0.579 µM) | MIC [15]: 0.5 mg/L (≈ 0.29 µM) | MIC [16]: 0.5 mg/L (≈ 0.29 µM) | MIC [19]: ≤ 0.06 mg/L | MIC [17]: 2 mg/L (≈ 1.16 µM) | MIC [21]: ≤ 0.06 mg/L | MIC [20]: ≤ 0.06 mg/L

CNC(CC(C)C)C(=O)NC1C(=O)NC(CC(N)=O)C(=O)NC2C(=O)NC3C(=O)NC(C(=O)NC(C(=O)O)c4cc(O)cc(O)c4-c4cc3ccc4O)C(OC3CC(C)(N)C(O)C(C)O3)c3ccc(c(Cl)c3)Oc3cc2cc(c3OC2OC(CO)C(O)C(O)C2OC2CC(C)(NCC=Cc3ccccc3)C(O)C(C)O2)Oc2ccc(cc2Cl)C1O (stereo not shown) [Compound 38]
mean geometric MIC, Vancomycin Resistant Strains [1]: 4.0 mg/L | MIC [2]: 0.5 mg/L (≈ 0.293 µM) | MIC [3]: 1 mg/L (≈ 0.585 µM) | MIC [4]: ≤ 0.06 mg/L | MIC [5]: 1 mg/L (≈ 0.585 µM) | MIC [18]: ≤ 0.06 mg/L | MIC [7]: ≤ 0.06 mg/L | MIC [9]: ≤ 0.06 mg/L | mean geometric MIC, Vancomycin Sensitive Strains [10]: 0.42 mg/L | MIC [11]: 0.5 mg/L (≈ 0.293 µM) | MIC [12]: 1 mg/L (≈ 0.585 µM) | MIC [14]: 0.5 mg/L (≈ 0.293 µM) | MIC [15]: 0.5 mg/L (≈ 0.293 µM) | MIC [16]: 1 mg/L (≈ 0.585 µM) | MIC [19]: ≤ 0.06 mg/L | MIC [17]: 0.5 mg/L (≈ 0.293 µM) | MIC [20]: ≤ 0.06 mg/L

CNC(CC(C)C)C(=O)NC1C(=O)NC(CC(N)=O)C(=O)NC2C(=O)NC3C(=O)NC(C(=O)NC(C(=O)O)c4cc(O)cc(O)c4-c4cc3ccc4O)C(OC3CC(C)(N)C(O)C(C)O3)c3ccc(c(Cl)c3)Oc3cc2cc(c3OC2OC(CO)C(O)C(O)C2OC2CC(C)(NCc3ccc(NC(=O)c4cccc(F)c4)cc3)C(O)C(C)O2)Oc2ccc(cc2Cl)C1O (stereo not shown) [Compound 194]
mean geometric MIC, Vancomycin Resistant Strains [1]: 2.4 mg/L | MIC [2]: 0.5 mg/L (≈ 0.275 µM) | MIC [3]: 2 mg/L (≈ 1.1 µM) | MIC [4]: ≤ 0.06 mg/L | MIC [5]: 1 mg/L (≈ 0.55 µM) | MIC [18]: ≤ 0.06 mg/L | MIC [6]: 2 mg/L (≈ 1.1 µM) | MIC [7]: ≤ 0.06 mg/L | MIC [9]: ≤ 0.06 mg/L | mean geometric MIC, Vancomycin Sensitive Strains [10]: 0.083 mg/L | MIC [12]: 0.5 mg/L (≈ 0.275 µM) | MIC [13]: 0.5 mg/L (≈ 0.275 µM) | MIC [14]: 0.5 mg/L (≈ 0.275 µM) | MIC [15]: ≤ 0.06 mg/L | MIC [16]: ≤ 0.06 mg/L | MIC [19]: ≤ 0.06 mg/L | MIC [17]: ≤ 0.06 mg/L | MIC [21]: ≤ 0.06 mg/L | MIC [20]: ≤ 0.06 mg/L

CCCCCC1CCC(c2ccc(CNC3(C)CC(OC4C(Oc5c6cc7cc5Oc5ccc(cc5Cl)C(OC5CC(C)(N)C(O)C(C)O5)C5NC(=O)C(NC(=O)C7NC(=O)C(CC(N)=O)NC(=O)C(NC(=O)C(CC(C)C)NC)C(O)c7ccc(c(Cl)c7)O6)c6ccc(O)c(c6)-c6c(O)cc(O)cc6C(C(=O)O)NC5=O)OC(CO)C(O)C4O)OC(C)C3O)cc2)CC1 (stereo not shown) [Compound 34]
mean geometric MIC, Vancomycin Resistant Strains [1]: 4.0 mg/L | MIC [4]: 8 mg/L (≈ 4.36 µM) | MIC [6]: 4 mg/L (≈ 2.18 µM) | MIC [7]: 4 mg/L (≈ 2.18 µM) | mean geometric MIC, Vancomycin Sensitive Strains [10]: 3.4 mg/L | MIC [22]: 8 mg/L (≈ 4.36 µM) | MIC [13]: 8 mg/L (≈ 4.36 µM) | MIC [15]: 8 mg/L (≈ 4.36 µM) | MIC [19]: 2 mg/L (≈ 1.09 µM) | MIC [21]: 2 mg/L (≈ 1.09 µM)

CNC(CC(C)C)C(=O)NC1C(=O)NC(CC(N)=O)C(=O)NC2C(=O)NC3C(=O)NC(C(=O)NC(C(=O)O)c4cc(O)cc(O)c4-c4cc3ccc4O)C(OC3CC(C)(N)C(O)C(C)O3)c3ccc(c(Cl)c3)Oc3cc2cc(c3OC2OC(CO)C(O)C(O)C2OC2CC(C)(NCc3ccc(N4CCN(C)CC4)cc3)C(O)C(C)O2)Oc2ccc(cc2Cl)C1O (stereo not shown) [Compound 146]
MIC [2]: 2 mg/L (≈ 1.12 µM) | MIC [3]: 4 mg/L (≈ 2.25 µM) | MIC [4]: 0.5 mg/L (≈ 0.281 µM) | MIC [5]: 2 mg/L (≈ 1.12 µM) | MIC [18]: ≤ 0.06 mg/L | MIC [6]: 0.5 mg/L (≈ 0.281 µM) | MIC [7]: 8 mg/L (≈ 4.49 µM) | MIC [8]: ≤ 0.06 mg/L | MIC [9]: 0.5 mg/L (≈ 0.281 µM) | mean geometric MIC, Vancomycin Sensitive Strains [10]: 1.5 mg/L | MIC [11]: 1 mg/L (≈ 0.562 µM) | MIC [12]: ≤ 0.06 mg/L | MIC [13]: 2 mg/L (≈ 1.12 µM) | MIC [14]: ≤ 0.06 mg/L | MIC [15]: 1 mg/L (≈ 0.562 µM) | MIC [16]: 0.5 mg/L (≈ 0.281 µM) | MIC [19]: ≤ 0.06 mg/L | MIC [17]: 0.5 mg/L (≈ 0.281 µM) | MIC [21]: ≤ 0.06 mg/L | MIC [20]: ≤ 0.06 mg/L
